Results on 17 compounds are retold here after patent US9809537B2, “Glycosidase inhibitors and uses thereof” (Alectos Therapeutics Inc., priority 2012, dated 2017).

The target in one data set is T1, human O-GlcNAcase (Homo sapiens, UniProt O60502).
T1 sequence (O60502 1-916): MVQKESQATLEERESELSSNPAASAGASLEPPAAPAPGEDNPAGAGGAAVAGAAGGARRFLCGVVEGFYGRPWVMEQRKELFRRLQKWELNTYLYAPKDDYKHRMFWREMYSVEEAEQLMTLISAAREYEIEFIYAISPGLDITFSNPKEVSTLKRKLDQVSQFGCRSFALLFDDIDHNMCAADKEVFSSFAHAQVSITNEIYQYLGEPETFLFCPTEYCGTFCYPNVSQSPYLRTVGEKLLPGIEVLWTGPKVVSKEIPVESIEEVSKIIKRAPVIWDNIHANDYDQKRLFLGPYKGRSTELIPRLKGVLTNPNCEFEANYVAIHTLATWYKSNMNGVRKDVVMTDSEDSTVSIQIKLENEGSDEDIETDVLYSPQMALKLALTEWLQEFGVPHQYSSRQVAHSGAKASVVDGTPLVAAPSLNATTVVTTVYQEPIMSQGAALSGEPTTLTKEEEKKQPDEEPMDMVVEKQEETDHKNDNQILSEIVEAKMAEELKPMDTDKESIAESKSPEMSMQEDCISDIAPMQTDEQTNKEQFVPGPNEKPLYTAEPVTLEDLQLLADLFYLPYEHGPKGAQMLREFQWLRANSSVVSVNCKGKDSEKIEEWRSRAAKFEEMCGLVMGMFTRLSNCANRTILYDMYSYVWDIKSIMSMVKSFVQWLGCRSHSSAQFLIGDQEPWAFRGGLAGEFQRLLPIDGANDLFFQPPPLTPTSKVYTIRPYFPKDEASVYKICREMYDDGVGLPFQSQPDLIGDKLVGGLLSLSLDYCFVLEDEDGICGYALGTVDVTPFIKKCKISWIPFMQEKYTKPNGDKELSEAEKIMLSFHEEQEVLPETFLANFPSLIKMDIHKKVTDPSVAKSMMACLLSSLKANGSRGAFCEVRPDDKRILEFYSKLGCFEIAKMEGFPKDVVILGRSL
Put plainly: Fluorescence-based assay for KI values for inhibition of O-GlcNAcase activity. In kind it is biochemical. The following applies: purified human O-GlcNAcase, 4-methylumbelliferyl GlcNAc substrate, pH 7.0, Cheng-Prusoff; read-out: Fluorescence-based hOGA Ki. The procedure: Assay for Determination of KI Values for Inhibition of O-GlcNAcase Activity
Experimental Procedure for Kinetic Analyses:
Enzymatic reactions were carried out in a reaction containing 50 mM NaH2PO4, 100 mM NaCl and 0.1% BSA (pH 7.0) using 2 mM 4-Methylumbelliferyl N-acetyl-β-D-glucosaminide dihydrate (Sigma M2133) dissolved in ddH2O, as a substrate. The amount of purified human O-GlcNAcase enzyme used in the reaction was 0.7 nM. Test compound of varying concentrations was added to the enzyme prior to initiation of the reaction. The reaction was performed at room temperature in a 96-well plate and was initiated with the addition of substrate. The production of fluorescent product was measured every 60 sec for 45 min with a Tecan Infinite M200 plate-reader with excitation at 355 nm and emission detected at […], with 4-Methylumbelliferone (Sigma M1381) used to produce a standard curve. The slope of product production was determined for each concentration of compound tested and plotted, using standard curve fitting algorithms for sigmoidal dose response curves. The values for a four parameter logistic curve fit of the data were determined.
KI values were determined using the Cheng-Prusoff equation; the Km of O-GlcNAcase for substrate was 0.2 mM.

Data set [1] is described as follows: Apparent permeability (Papp), bi-directional transport. The class given is in vitro ADME. The following applies: pig, LLC-PK1, t=3 h, average of A to B and B to A, read-out: Papp LLC-PK1 cells. The protocol: Assay for Determination of Apparent Permeability (Papp)
Bi-directional transport is evaluated in LLC-PK1 cells in order to determine apparent permeability (Papp). LLC-PK1 cells can form a tight monolayer and therefore can be used to assess vectorial transport of compounds from basolateral to apical (B→A) and from apical to basolateral (A→B).
To determine Papp, LLC-PK1 cells are cultured in 96-well transwell culture plates (Millipore). Solutions containing the test compounds (1 μM) are prepared in Hank's Balanced Salt Solution with 10 mM HEPES. Substrate solution (150 μL) is added to either the apical (A) or the basolateral (B) compartment of the culture plate, and buffer (150 μL) is added to the compartment opposite to that containing the compound. At t=3 h, 50 μL samples are removed from both sides of monolayers dosed with test compound and placed in 96 well plates, scintillant (200 μL) or internal standard (100 μL labetolol 1 μM) is added to the samples and concentration is determined by liquid scintillation counting in a MicroBeta Wallac Trilux scintillation counter (Perkin Elmer Life Sciences, Boston, Mass.) or by LCMS/MS (Applied Biosystems SCIEX API 5000 triple quadruple mass spectrometer). [^3H]Verapamil (1 μM) is used as the positive control. The experiment is performed in triplicate.
The apparent permeability, Papp, is calculated by the following formula for samples taken at t=3 h:
[formula] Where: Volume of Receptor Chamber is 0.15 mL; Area of membrane is 0.11 cm^2; the Initial Concentration is the sum of the concentration measured in the donor plus concentration measured in receiver compartments at t=3 h; A in Concentration is concentration in the receiver compartment at 3 h; and A in Time is the incubation time (3×60×60=10800 s). Papp is expressed as 10^−6 cm/s. The Papp (LLC-PK1 cells) are the average of the Papp for transport from A to B and Papp for transport from B to A at t=3 h: […]

pKi: −log10 of the molar value.

In general, pKi refers to the negative decadic logarithm of the Ki, by convention in mol/L. `CC(=O)NC[C@@H]1[C@@H](O)[C@H](O)[C@@H](CO)N1Cc1ccc(-c2ccccc2)cc1` [Example 9, N-(((2R,3R,4R,5R)-1-([1,1′-biphenyl]-4-ylmethyl)-3,4-dihydroxy-5-(hydroxymethyl)pyrrolidin-2-yl)methyl)acetamide]: the pKi at human O-GlcNAcase is 5.34.

What is called Papp is the rate of passage across a membrane or cell layer, normalised by area and donor concentration. In the case of `CC(=O)NC[C@@H]1[C@@H](O)[C@H](O)[C@@H](CO)N1CCCCc1ccccc1` [Example 5, N-(((2R,3R,4R,5R)-3,4-dihydroxy-5-(hydroxymethyl)-1-(4-phenylbutyl)pyrrolidin-2-yl)methyl)acetamide], the pKi on human O-GlcNAcase is 6.76. Besides, in data set [1], the apparent permeability coefficient (Papp) at 3 h, 1 μM was less than 1.6 ×10⁻⁶ cm/s.

On to `CC(=O)NC[C@@H]1[C@@H](O)[C@H](O)[C@@H](CO)N1Cc1ccccn1` [Example 8, N-(((2R,3R,4R,5R)-3,4-dihydroxy-5-(hydroxymethyl)-1-(pyridin-2-ylmethyl)pyrrolidin-2-yl)methyl)acetamide], for which the negative-log Ki (pKi) at human O-GlcNAcase was 5.52.

As to `CC(=O)NC[C@@H]1[C@@H](O)[C@H](O)[C@@H](CO)N1CCCc1ccccc1` [Example 1, N-(((2R,3R,4R,5R)-3,4-dihydroxy-5-(hydroxymethyl)-1-(3-phenylpropyl)pyrrolidin-2-yl)methyl)acetamide], the pKi on human O-GlcNAcase was 6.43.

For `CC(=O)NC[C@@H]1[C@@H](O)[C@H](O)[C@@H](CO)N1CCc1ccc(-c2ccccc2)cc1` [Example 4, N-(((2R,3R,4R,5R)-1-(2-([1,1′-biphenyl]-4-yl)ethyl)-3,4-dihydroxy-5-(hydroxymethyl)pyrrolidin-2-yl)methyl)acetamide], the pKi on human O-GlcNAcase is 7.10. The Papp at 3 h, 1 μM in data set [1] is 4.4 ×10⁻⁶ cm/s.

On to `CNC(=O)C[C@@H]1[C@@H](O)[C@H](O)[C@@H](CO)N1CCCc1ccccc1` [Example 10, 2-((2R,3R,4R,5R)-3,4-dihydroxy-5-(hydroxymethyl)-1-(3-phenylpropyl)pyrrolidin-2-yl)-N-methylacetamide], for which the pKi at human O-GlcNAcase was 7.26.

Take `CCNC(=O)C[C@@H]1[C@@H](O)[C@H](O)[C@@H](CO)N1CCC(c1ccccc1)c1ccccc1` [Example 12, 2-((2R,3R,4R,5R)-1-(3,3-diphenylpropyl)-3,4-dihydroxy-5-(hydroxymethyl)pyrrolidin-2-yl)-N-ethylacetamide]: the pKi on human O-GlcNAcase is 7.22.

Consider `CCCCN1C(CNC(C)=O)[C@@H](O)[C@H](O)[C@H]1CO` (stereo partly drawn) [reference compound], for which, on human O-GlcNAcase, the pKi is 5.99.

As for `CC(=O)NC[C@@H]1[C@@H](O)[C@H](O)[C@@H](CO)N1CCC(c1ccccc1)c1ccccc1` [Example 6, N-(((2R,3R,4R,5R)-1-(3,3-diphenylpropyl)-3,4-dihydroxy-5-(hydroxymethyl)pyrrolidin-2-yl)methyl)acetamide], the pKi on human O-GlcNAcase is 7.39.

With `CNC(=O)C[C@@H]1[C@H](O)[C@H](O)[C@@H](CO)N1CCCc1ccccc1` [Example 13, 2-((2R,3S,4R,5R)-3,4-dihydroxy-5-(hydroxymethyl)-1-(3-phenylpropyl)pyrrolidin-2-yl)-N-methylacetamide], at human O-GlcNAcase, the pKi is 8.08.

For `CC(=O)NC[C@@H]1[C@@H](O)[C@H](O)[C@@H](CO)N1Cc1cccnc1` [Example 7, N-(((2R,3R,4R,5R)-3,4-dihydroxy-5-(hydroxymethyl)-1-(pyridin-3-ylmethyl)pyrrolidin-2-yl)methyl)acetamide], on human O-GlcNAcase, the pKi was 5.57.

`CCNC(=O)C[C@@H]1[C@@H](O)[C@H](O)[C@@H](CO)N1CCCc1ccc(OC)cc1` [Example 11, 2-((2R,3R,4R,5R)-3,4-dihydroxy-5-(hydroxymethyl)-1-(3-(4-methoxyphenyl)propyl)pyrrolidin-2-yl)-N-ethylacetamide]: the pKi on human O-GlcNAcase is 6.88.

For `CC(=O)NCC1[C@@H](O)[C@H](O)[C@@H](CO)N1CCc1ccccc1` (stereo partly drawn) [reference compound], on human O-GlcNAcase, the pKi is 6.46.

Consider `CC(=O)NC[C@H]1N[C@H](CO)[C@@H](O)[C@@H]1O` [reference compound], for which, at human O-GlcNAcase, the pKi was 6.97.

For the compound `CCCN1C(CNC(C)=O)[C@@H](O)[C@H](O)[C@H]1CO` (stereo partly drawn) [reference compound], the negative logarithm of the Ki (pKi) at human O-GlcNAcase was 5.69.

On to `COc1ccc(CCCN2[C@H](CO)[C@@H](O)[C@H](O)[C@H]2CNC(C)=O)cc1` [Example 2, N-(((2R,3R,4R,5R)-3,4-dihydroxy-5-(hydroxymethyl)-1-(3-(4-methoxyphenyl)propyl)pyrrolidin-2-yl)methyl)acetamide], for which, on human O-GlcNAcase, the pKi is 6.97. In data set [1], the apparent permeability (Papp) at 3 h, 1 μM stood at 2.6 ×10⁻⁶ cm/s.

Consider `CCCCCCN1C(CNC(C)=O)[C@@H](O)[C@H](O)[C@H]1CO` (stereo partly drawn) [reference compound], for which the pKi at human O-GlcNAcase is 6.21. Moreover, the apparent permeability (Papp) at 3 h, 1 μM in data set [1] was less than 1.6 ×10⁻⁶ cm/s.
